The subject of assay [1] is RNA polymerase II Serine 5 phosphorylation in A549 cells overexpressing CDK7 mutant (C312S). Put plainly: Imaging-based cellular RNA PolII Ser5 phosphorylation assay in A549 cells overexpressing CDK7-mutant (C312S). The assay is classed as cell-based, human. The settings on record: for IC50: Homo sapiens, A549, A549 cells overexpressing CDK7 mutant (C312S), read-out: CDK7_ A549 mutant hCDK7(pIC50) (converted); for CDK7_ A549 mutant hCDK7(pIC50): A549 cells overexpressing CDK7 mutant (C312S). How it is done:
Data were calculated and analyzed in Phaedra.
From this an IC50 value can be obtained.
In parallel this assay was performed in A549 cells overexpressing CDK7-mutant (C312S) to evaluate the effect of the covalent bond on potency and to screen for potential off-target effects. Mutation of Cysteine to Serine (C312S), a less nucleophilic amino acid, prevents CDK7 inhibitors from covalently binding to CDK7 and from inhibiting CDK7 activity in an irreversible manner. A stably transduced A549 cell pool was generated that overexpresses CDK7 mutant (C312S), but also expresses endogenous CDK7-WT. Covalent binders targeting the cysteine at position 312 will show a shift in potency in A549 cells overexpressing mutant C312S CDK7.

In assay [2] the test system is RNA polymerase II Serine 5 phosphorylation (CDK7) in A549 cells.

The structures appear in SMILES notation. pIC50: −log10 of the molar value.

One may read the pIC50 as the IC50 on a negative log10 scale, so that one unit is a factor of ten. Read a low pIC50 as a high IC50. Turning to `[2H]C([2H])([2H])C#CC(=O)N1CC[C@H](N2CC(c3cc(C)c4c(c3)Nc3ncnc(N5CCS(=O)(=O)CC5)c3[C@@H](C)O4)C2)C1` (single isomer, unassigned) [compound 166], the IC50 in assay [1] was greater than 10000 nM. The molecule further had a pIC50 in assay [2] of 6.85.
Consider `CC#CC(=O)N1CC(N2CC(c3cc(C)c4c(c3)Nc3ncnc(N5CCS(=O)(=O)CC5)c3[C@@H](C)O4)C2)C(C)(C)C1` (mixture of isomers) [compound 184], for which the IC50 in assay [1] is greater than 10000 nM. In assay [2], this molecule showed a pIC50 of 6.73.
For `[2H]C([2H])([2H])C#CC(=O)N1CC(C)(N2CCC(c3cc(C)c4c(c3)Nc3ncnc(N5CCS(=O)(=O)CC5)c3[C@@H](C)O4)CC2)C1` [compound 179], the IC50 in assay [1] was greater than 10000 nM. The pIC50 in assay [2] was roughly 7.25.
For `Cc1cc(C2CN([C@H]3CCN(C(=O)C#CCN(C)C)C3)C2)cc2c1O[C@H](C)c1c(ncnc1N1CCS(=O)(=O)CC1)N2` (single isomer, unassigned) [compound 170] the same measures were 7240 nM and greater than 8.01.
Consider `Cc1cc(C2CCN(C3(C)CN(C(=O)C#CCN(C)C)C3)CC2)cc2c1O[C@H](C)c1c(ncnc1N1CCS(=O)(=O)CC1)N2` [compound 181], for which the IC50 in assay [1] was 2340 nM. In assay [2], this molecule gave a negative-log IC50 (pIC50) of 7.38.
On to `CC#CC(=O)N1CC[C@H](N2CC(c3cc(C)c4c(c3)Nc3ncnc(N5CCS(=O)(=O)CC5)c3[C@@H](C)O4)C2)C1` [compound 142], for which the “CDK7_ A549 mutant hCDK7(pIC50)” value in assay [1] is less than 5. This molecule had a pIC50 in assay [2] of 6.45.
Regarding `C=CC(=O)N1CC[C@H](N2CC(c3cc4c(c(C5CC5)c3)O[C@@H](C)c3c(ncnc3N3CCS(=O)(=O)CC3)N4)C2)C1` (single isomer, unassigned) [compound 99], the IC50 in assay [1] was greater than 10000 nM. This molecule gave a pIC50 in assay [2] of roughly 6.10.
For `CC#CC(=O)N1CCC([C@H]2CC[C@@H](c3cc(C)c4c(c3)Nc3ncnc(N5CCS(=O)(=O)CC5)c3[C@@H](C)O4)CC2)CC1` [compound 173] the same measures were greater than 10000 nM and less than 5.00.
On to `CC#CC(=O)N1CC[C@@H](N2CC(c3cc(C)c4c(c3)Nc3ncnc(N5CCS(=O)(=O)CC5)c3[C@@H](C)O4)C2)C1` [compound 141], for which the “CDK7_ A549 mutant hCDK7(pIC50)” value in assay [1] was less than 5. In assay [2], the negative-log IC50 (pIC50) is 6.79.
As for `Cc1cc(C2CCN(C3(C)CN(C(=O)C#CCCN4CCOCC4)C3)CC2)cc2c1O[C@H](C)c1c(ncnc1N1CCS(=O)(=O)CC1)N2` [compound 180], the IC50 in assay [1] is greater than 10000 nM. In addition, in assay [2], the pIC50 is greater than 8.01.
`CC#CC(=O)N1CC[C@H](N2CCC(c3cc(C)c4c(c3)Nc3ncnc(N5CCS(=O)(=O)CC5)c3CO4)CC2)C1` (single isomer, unassigned) [compound 134]: the IC50 in assay [1] is greater than 10000 nM. Also, in assay [2], the pIC50 was 7.08.
For the molecule `CC#CC(=O)N1CC[C@@](C)(N2CCC(c3cc(C)c4c(c3)Nc3ncnc(N5CCS(=O)(=O)CC5)c3[C@@H](C)O4)CC2)C1` (single isomer, unassigned) [compound 145], in assay [1], the IC50 is 4570 nM. For the same molecule, the pIC50 in assay [2] is roughly 7.84.
For `CC#CC(=O)N1CCOC([C@H]2C[C@H](c3cc(C)c4c(c3)Nc3ncnc(N5CCS(=O)(=O)CC5)c3[C@@H](C)O4)C2)C1` (single isomer, unassigned) [compound 185] the same measures were greater than 10000 nM and roughly 6.42.
As to `C=CC(=O)N1CC(N2CC(c3cc(C)c4c(c3)Nc3ncnc(-c5cnn(C)c5)c3[C@H](C)O4)C2)C1` (single isomer, unassigned) [compound 108], the IC50 in assay [1] was greater than 10000 nM. Besides, the pIC50 in assay [2] was less than 5.00.
For `CC#CC(=O)N1CC(OC2CCN(c3cc(C)c4c(c3)Nc3ncnc(N5CCS(=O)(=O)CC5)c3[C@@H](C)O4)CC2)C1` [compound 143] the same measures were greater than 10000 nM and 6.04.
`CC#CC(=O)N1CCC([C@H]2CC[C@H](c3cc(C)c4c(c3)Nc3ncnc(N5CCS(=O)(=O)CC5)c3[C@@H](C)O4)CC2)CC1` [compound 172]: the IC50 in assay [1] was greater than 10000 nM. This molecule had a pIC50 in assay [2] of 6.45.

The values are drawn from patent publication US20240109912A1, “TRICYCLIC PYRIMIDINES AS CYCLIN-DEPENDENT KINASE 7 (CDK7) INHIBITORS” (JANSSEN PHARMACEUTICA NV, priority 2020, published 2024).
